One experiment relates to Eotaxin-3 (CCL26) release in human whole blood stimulated with IL-4. Briefly: Human whole blood eotaxin-3 assay (IL-4 stimulated, Eotaxin-3 release). The experiment is classed as cell-based. The note with it: Homo sapiens, 48 h. The protocol: This was a human whole blood assay using recombinant human Interleukin 4 to stimulate the blood and measuring the ability of the test compounds to inhibit eotaxin-3 release. The biological activities of the test compounds have been tested in human whole blood stimulated with IL-4 measuring Eotaxin-3 release. The test compounds were added to 384 well clear flat-bottom plate in a 4-fold serial dilution in triplicates using a liquid handler. Human whole blood stabilized in lithium-heparin tubes was added in a volume of 65 μL per well, resulting in a final DMSO concentration of 0.5%. The plate is incubated for 2 h at 37° C. under 5% CO2/95% air. Subsequently, 5 μL of recombinant human IL-4 (R&D Systems, cat #204-ILB) was added to the wells to a final concentration of 400 pM. The plate was incubated for 48 h at 37° C. under 5% CO2/95% air. The plate was spun down for 10 minutes at 500×g and 20 μL supernatant was harvested and transferred to a 384 well v-bottom plate using a liquid handler and stored at −20° C. until further analysis. 10 μL supernatant was used to measure the level of Eotaxin-3 (CCL26) using Human Eotaxin-3 MSD kit from Mesocsale (Cat #K251UEK-4). The assay was performed according to the manufacture instructions.
The data from the human whole blood eotaxin-3 assay is shown below for Examples 1u2, 1x1, 1af26, and 1af36 (where the effect in % is plotted against the test concentration in M on a log-scale).
On to `[2H]C([2H])([2H])N(C(=O)c1cnc(C2=CCN(Cc3cc4c(-c5ccc(N)nc5)ccnc4n3C)CC2)cn1)C([2H])([2H])[2H]` [Example 1af79, 5-(1-((4-(6-Aminopyridin-3-yl)-1-methyl-1H-pyrrolo[2,3-b]pyridin-2-yl)methyl)-1,2,3,6-tetrahydropyridin-4-yl)-N,N-bis(methyl-d3)pyrazine-2-carboxamide], for which the maximal effect (Emax) lay within 20 to 30%.
`CNc1ccc(-c2ccnc3c2cc(CN2CC=C(c4ccc(C(=O)N(C)C)cn4)CC2)n3C)nn1` [Example 1p8, N,N-Dimethyl-6-[1-[[1-methyl-4-[6-(methylamino)pyridazin-3-yl]pyrrolo[2,3-b]pyridin-2-yl]methyl]-3,6-dihydro-2H-pyridin-4-yl]pyridine-3-carboxamide] came in with an Emax of under 20%.
For `CNc1ccc(-c2ccnc3c2cc(CN2CCN(c4ccc(C(=O)N(C)C)cn4)CC2)n3C)nn1` [Example 1p9, N,N-Dimethyl-6-[4-[[1-methyl-4-[6-(methylamino)pyridazin-3-yl]pyrrolo[2,3-b]pyridin-2-yl]methyl]piperazin-1-yl]pyridine-3-carboxamide], the Emax is under 20%.
Same read-out and setting: then `CN(C)C(=O)c1ccc(C2=CCN(Cc3cc4c(-c5ccc(N)nc5)ccnc4n3C)CC2)nn1` [Example 1z3, 6-(1-((4-(6-aminopyridin-3-yl)-1-methyl-1H-pyrrolo[2,3-b]pyridin-2-yl)methyl)-1,2,3,6-tetrahydropyridin-4-yl)-N,N-dimethylpyridazine-3-carboxamide], with under 20%; and `[2H]C([2H])([2H])N(C(=O)c1ccc(C2=CCN(Cc3cc4c(-c5ccc(N)nc5)ccnc4n3C)CC2)nn1)C([2H])([2H])[2H]` [Example 1z4, 6-(1-((4-(6-aminopyridin-3-yl)-1-methyl-1H-pyrrolo[2,3-b]pyridin-2-yl)methyl)-1,2,3,6-tetrahydropyridin-4-yl)-N,N-bis(methyl-d3)pyridazine-3-carboxamide], with 20 to 30%; and `Cc1cc(C2=CCN(Cc3cc4c(-c5ccc(N)nc5)ccnc4n3C)CC2)ccc1C(=O)N(C)C` [Example 1z5, 4-(1-((4-(6-aminopyridin-3-yl)-1-methyl-1H-pyrrolo[2,3-b]pyridin-2-yl)methyl)-1,2,3,6-tetrahydropyridin-4-yl)-N,N,2-trimethylbenzamide], with 30 to 40%.
The same measure, in the same setting: then `Cc1cc(C(=O)N(C)C)nnc1C1=CCN(Cc2cc3c(-c4ccc(N)nc4)ccnc3n2C)CC1` [Example 1z6, 6-(1-((4-(6-aminopyridin-3-yl)-1-methyl-1H-pyrrolo[2,3-b]pyridin-2-yl)methyl)-1,2,3,6-tetrahydropyridin-4-yl)-N,N,5-trimethylpyridazine-3-carboxamide], with under 20%; and `CN(C)C(=O)c1ccc(C2=CCN(Cc3cc4c(-c5ccc(N)nc5)ccnc4n3C)CC2)cc1F` [Example 1z7, 4-(1-((4-(6-aminopyridin-3-yl)-1-methyl-1H-pyrrolo[2,3-b]pyridin-2-yl)methyl)-1,2,3,6-tetrahydropyridin-4-yl)-2-fluoro-N,N-dimethylbenzamide], with 20 to 30%.

Staying with this experiment, now noted: Homo sapiens, Hec50, 48 h.
`Cc1cc(C(=O)N(C)C)ccc1C1=CCN(Cc2cc3c(-c4ccc(N)nn4)ccnc3n2C)CC1` [Example 1af76, 4-(1-((4-(6-Aminopyridazin-3-yl)-1-methyl-1H-pyrrolo[2,3-b]pyridin-2-yl)methyl)-1,2,3,6-tetrahydropyridin-4-yl)-N,N,3-trimethylbenzamide]: the concentration giving a half-maximal response (EC50) came out at 308 nM.
The same measure, in the same setting: next, `CN(C)C(=O)c1ccc(C2=CCN(Cc3cc4c(-c5ccc(N)nn5)ccnc4n3C)CC2)c(Cl)c1` [Example 1af77, 4-(1-((4-(6-Aminopyridazin-3-yl)-1-methyl-1H-pyrrolo[2,3-b]pyridin-2-yl)methyl)-1,2,3,6-tetrahydropyridin-4-yl)-3-chloro-N,N-dimethylbenzamide]: 871 nM; `CN(C)C(=O)c1ccc(C2=CCN(Cc3cc4c(-c5ccc(N)nn5)ccnc4n3C)CC2)nc1` [Example 1af78, 1′-((4-(6-Aminopyridazin-3-yl)-1-methyl-1H-pyrrolo[2,3-b]pyridin-2-yl)methyl)-N,N-dimethyl-1′,2′,3′,6′-tetrahydro-[2,4′-bipyridine]-5-carboxamide]: 851 nM.
The same measure, in the same setting: then `Cc1cc(C(=O)N(C)C)cc(F)c1C1=CCN([C@@H](C)c2cc3c(-c4ccc(N)nn4)ccnc3n2C)CC1` [Example 1af80, (S)-4-(1-(1-(4-(6-aminopyridazin-3-yl)-1-methyl-1H-pyrrolo[2,3-b]pyridin-2-yl)ethyl)-1,2,3,6-tetrahydropyridin-4-yl)-3-fluoro-N,N,5-trimethylbenzamide], with 11.4 nM; and `[2H]C([2H])([2H])N(C(=O)c1cc(C)c(C2=CCN([C@@H](C)c3cc4c(-c5ccc(N)nn5)ccnc4n3C)CC2)c(F)c1)C([2H])([2H])[2H]` [Example 1af81, (S)-4-(1-(1-(4-(6-aminopyridazin-3-yl)-1-methyl-1H-pyrrolo[2,3-b]pyridin-2-yl)ethyl)-1,2,3,6-tetrahydropyridin-4-yl)-3-fluoro-5-methyl-N,N-bis(methyl-d3)benzamide], with 12.6 nM; and `CN(C)C(=O)c1ccc(C2CCN(Cc3cc4c(-c5ccc(N)c(C(=O)O)n5)ccnc4n3C)CC2)cc1` [Example 1k79, 3-Amino-6-[2-[[4-[4-(dimethylcarbamoyl)phenyl]-1-piperidyl]methyl]-1-methyl-pyrrolo[2,3-b]pyridin-4-yl]pyridine-2-carboxylic acid], with 7170 nM.
Same read-out and setting: next, `[2H]C([2H])([2H])N(C(=O)c1ccc(N2CCN(Cc3cc4c(-c5ccc(NC)nn5)ccnc4n3C)CC2)c(C)c1)C([2H])([2H])[2H]` [Example 1p4, 3-Methyl-4-[4-[[1-methyl-4-[6-(methylamino)pyridazin-3-yl]pyrrolo[2,3-b]pyridin-2-yl]methyl]piperazin-1-yl]-N,N-bis(trideuteriomethyl)benzamide]: 13300 nM; `[2H]C([2H])([2H])N(C(=O)c1ccc(C2=CCN(Cc3cc4c(-c5ccc(NC)nn5)ccnc4n3C)CC2)c(C)c1)C([2H])([2H])[2H]` [Example 1p7, 3-Methyl-4-[1-[[1-methyl-4-[6-(methylamino)pyridazin-3-yl]pyrrolo[2,3-b]pyridin-2-yl]methyl]-3,6-dihydro-2H-pyridin-4-yl]-N,N-bis(trideuteriomethyl)benzamide]: 504 nM; `CNc1ccc(-c2ccnc3c2cc(CN2CC=C(c4c(C)cc(C(=O)N(C)C)cc4C)CC2)n3C)nn1` [Example 1p10, N,N,3,5-Tetramethyl-4-[1-[[1-methyl-4-[6-(methylamino)pyridazin-3-yl]pyrrolo[2,3-b]pyridin-2-yl]methyl]-3,6-dihydro-2H-pyridin-4-yl]benzamide]: 239 nM.
On to `CNc1ccc(-c2ccnc3c2cc(CN2CC=C(c4ncc(C(=O)N(C)C)cc4C)CC2)n3C)nn1` [Example 1p11, N,N,5-Trimethyl-6-[1-[[1-methyl-4-[6-(methylamino)pyridazin-3-yl]pyrrolo[2,3-b]pyridin-2-yl]methyl]-3,6-dihydro-2H-pyridin-4-yl]pyridine-3-carboxamide], for which the EC50 stood at 4530 nM.
Regarding `CNc1ccc(-c2ccnc3c2cc(CN2CC=C(c4ccc(C(=O)N(C)C)cc4OC)CC2)n3C)nn1` [Example 1p14, 3-Methoxy-N,N-dimethyl-4-[1-[[1-methyl-4-[6-(methylamino)pyridazin-3-yl]pyrrolo[2,3-b]pyridin-2-yl]methyl]-3,6-dihydro-2H-pyridin-4-yl]benzamide], the EC50 amounted to 3200 nM.
`CNc1ccc(-c2ccnc3c2cc(CN2CC=C(c4ccc(C(=O)N(C)C)cc4C(F)(F)F)CC2)n3C)nn1` [Example 1p15, N,N-Dimethyl-4-[1-[[1-methyl-4-[6-(methylamino)pyridazin-3-yl]pyrrolo[2,3-b]pyridin-2-yl]methyl]-3,6-dihydro-2H-pyridin-4-yl]-3-(trifluoromethyl)benzamide]: a half-maximal effect (EC50) was put at 1530 nM. This EC50 lies about 2.1-fold lower than the previous one.
In turn, `CNc1ccc(-c2ccnc3c2cc(CN2CC=C(c4c(C)cc(C(=O)N(C)C)cc4F)CC2)n3C)nn1` [Example 1p17, 3-Fluoro-N,N,5-trimethyl-4-[1-[[1-methyl-4-[6-(methylamino)pyridazin-3-yl]pyrrolo[2,3-b]pyridin-2-yl]methyl]-3,6-dihydro-2H-pyridin-4-yl]benzamide] displayed an EC50 of 94 nM.
Same read-out and setting: then `CNc1ccc(-c2ccnc3c2cc(CN2CC=C(c4ccc(C(=O)N(C)C)cc4Cl)CC2)n3C)nn1` [Example 1p18, 3-Chloro-N,N-dimethyl-4-[1-[[1-methyl-4-[6-(methylamino)pyridazin-3-yl]pyrrolo[2,3-b]pyridin-2-yl]methyl]-3,6-dihydro-2H-pyridin-4-yl]benzamide], with 1710 nM; and `CNc1ccc(-c2ccnc3c2cc(CN2CC=C(c4c(F)cc(C(=O)N(C)C)cc4Cl)CC2)n3C)nn1` [Example 1p20, 3-Chloro-5-fluoro-N,N-dimethyl-4-[1-[[1-methyl-4-[6-(methylamino)pyridazin-3-yl]pyrrolo[2,3-b]pyridin-2-yl]methyl]-3,6-dihydro-2H-pyridin-4-yl]benzamide], with 214 nM; and `CN(C)C(=O)c1ccc(C2=CCN(Cc3cc4c(-c5ccc(N)nn5)ccnc4n3C)CC2)cc1` [Example 1z1, 4-(1-((4-(6-aminopyridazin-3-yl)-1-methyl-1H-pyrrolo[2,3-b]pyridin-2-yl)methyl)-1,2,3,6-tetrahydropyridin-4-yl)-N,N-dimethylbenzamide], with 5.76 nM.

For orientation: Emax means the size of the effect at its maximum, as opposed to the concentration needed. For orientation: EC50 means the concentration that produces a half-maximal response.
